Structures can show the parent of a compound that is named as a salt.
Columns and labels:
[1] = test system: HCT116; assay: efficacy (fitted maximal change in viability relative to DMSO control); higher = less cytotoxic (negative = loss of viability); settings: 48 h
[2] = test system: HCT116; assay: AC50 cell viability (CellTiter-Glo); higher = less potent; settings: 48 h
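Throughout, for AC50 cell viability (CellTiter-Glo): HCT116 colorectal carcinoma cells screened at five concentrations per compound, luminescent viability scaled between DMSO wells and empty wells on each plate, curves fitted per compound.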
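Throughout, for efficacy (fitted maximal change in viability relative to DMSO control): Luminescence-based viability readout, five doses per compound, normalized against on-plate DMSO and empty-well controls, followed by dose-response curve fitting for every drug.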

Row | SMILES | efficacy [1] | AC50 cell viability [2]
1 | COc1ccc([S+](=O)([O-])Nc2cccnc2Nc2ccc(O)cc2)cc1 [E-7010] | -63.2% | 0.59 µM
2 | CCC1CCCCN1C(=O)n1ncc(C(O)(c2ccccc2)c2ccccc2)n1 (stereo unspecified) [ML226] | -62.9% | 11.8 µM
3 | COc1cc([C@@H]2c3cc4c(cc3[C@@H](O[C@@H]3O[C@@H]5CO[C@@H](c6cccs6)O[C@H]5[C@H](O)[C@H]3O)[C@H]3COC(=O)[C@H]23)OCO4)cc(OC)c1O [Teniposide] | -104% | 4.17 µM
4 | Cc1csc(-c2nnc(Nc3ccc(Oc4ncccc4-c4ccnc(N)n4)cc3)c3ccccc23)c1 [AMG-900] | -52.9% | 16.6 µM
5 | O=C(/C=C\n1cnc(-c2cc(C(F)(F)F)cc(C(F)(F)F)c2)n1)NNc1ccccn1 [Verdinexor] | -83.9% | 0.59 µM
6 | NC(=O)c1ccc2nc(-c3ccc(C4(N)CCC4)cc3)c(-c3ccccc3)n2n1 | -103% | 20.9 µM
7 | ClC1=CC=C2OC3=C(\N=C(NC3=O)\[C@@H]4CCCN4)C2=C1 [XL 413 hydrochloride] | -47.6% | 14.8 µM
8 | COC(=O)[C@@]12OC[C@]34[C@H]([C@@H](O)[C@@H]1O)[C@@]1(C)CC(=O)C(O)=C(C)[C@@H]1C[C@H]3OC(=O)[C@H](OC(=O)/C=C(\C)C(C)C)[C@@H]24 [Bruceantin] | -71.9% | 0.00833 µM
9 | Cc1nc(NC(=O)N2CCCC2C(N)=O)sc1-c1ccnc(C(C)(C)C(F)(F)F)c1 (stereo unspecified) [BYL-719] | -87.4% | 3.72 µM
10 | CC(C)[C@H](CO)Nc1nc(Nc2cccc(Cl)c2)c2ncn(C(C)C)c2n1 [Purvalanol A] | -110% | 13.2 µM
11 | N#Cc1ccc(-c2c(-c3nnc[nH]3)sc(N3CCOCC3)c2C#N)c(F)c1 | -83.5% | 1.86 µM
12 | COc1cc(OC)c(/C=C/[S+](=O)([O-])Cc2ccc(OC)c(OP(=O)(O)O)c2)c(OC)c1 [Briciclib] | -61.6% | 0.0468 µM
13 | COc1ccc(-c2ccc3ncc4c(c3c2)n(-c2ccc(N3CCNCC3)c(C(F)(F)F)c2)c(=O)n4C)cn1 [NVP-BGT226] | -117% | 0.295 µM
14 | CC(C)Oc1ccc(C(=O)N[C@H](CNC(=O)CN(C)C)Cc2ccc(-c3cn4cccc([C@H](C)O)c4n3)cc2)cc1Cl | -127% | 4.17 µM
15 | COc1cc(CCc2cc(NC(=O)c3ccc(N4C[C@@H](C)N[C@@H](C)C4)cc3)n[nH]2)cc(OC)c1 [AZD-4547] | -98.5% | 10.5 µM
16 | Cn1c(=O)n(-c2ccc(C(C)(C)C#N)cc2)c2c3cc(-c4cnc5ccccc5c4)ccc3ncc21 [BEZ-235] | -60.5% | 0.135 µM
17 | O=C(/C=C/c1ccc(CN(CCO)CCc2c[nH]c3ccccc23)cc1)NO [Dacinostat] | -89.1% | 0.0833 µM
18 | CO[C@H]1/C=C\C=C(\C)C(=O)NC2=CC(=O)C(NCCN(C)C)=C(C[C@@H](C)C[C@H](OC)[C@H](O)[C@@H](C)/C=C(/C)[C@@H]1OC(N)=O)C2=O [Alvespimycin hydrochloride] | -92.8% | 0.372 µM
19 | CN1C(=O)\C(=C/C(=C1/NC2=C(F)C=C(I)C=C2)C(=O)NOCCO)C [AZD-8330] | -68.6% | 0.00934 µM
20 | CC[C@H](C)C(=O)O[C@H]1CC\C=C2\C=C/[C@H](C)[C@H](CC[C@@H]3C[C@@H](O)CC(=O)O3)[C@@H]12 [Mevastatin] | -58.3% | 14.8 µM

Row | SMILES | efficacy [1] | AC50 cell viability [2]
21 | C[C@H](NC(=O)C1=C2N=CC=C[N]2N=C1N)\C3=C\C4=CC=CC(=C4C(=O)N3C5=CC=CC=C5)C#CC6=C[N](C)N=C6 [IPI-549] | -43.1% | 8.11 µM
22 | Cc1cc(Nc2cc(NC(=O)c3c(Cl)cccc3Cl)ccn2)nc(N)n1 [RO495] | -74.4% | 1.18 µM
23 | CN1CCN([C@H]2CC[C@H](n3cc(-c4ccc(Oc5ccccc5)cc4)c4c(N)ncnc43)CC2)CC1 | -110% | 7.42 µM
24 | CCN(CC)CCNC(=O)c1ccc2nc(-c3ccccc3)c(-c3ccc(CN4CCC(n5c(=O)[nH]c6ccccc65)CC4)cc3)nc2c1 [Merck-22-6] | -99.8% | 8.33 µM
25 | CC1=C(C)C\2=C(S1)[N]3C(=NN=C3C(CC(=O)NC4=CC=C(O)C=C4)\N=C2C5=CC=C(Cl)C=C5)C (stereo unspecified) [Birabresib] | -80.8% | 0.833 µM
26 | O=C1c2cccc(O)c2C(=O)c2c(O)cc(CO)cc21 [Aloe-emodin] | -47.2% | 11.8 µM
27 | CCN(CC)CCCC(C)Nc1nc(C)cc(Nc2ccc3nc(C)cc(N)c3c2)n1 (stereo unspecified) | -54.4% | 20.9 µM
28 | CCOC(=O)\C1=C(/C)N\C2=C(C1C3=CC=C(C=C3)C4=CC=CC=C4)\C(=O)CC(C)(C)C2 (stereo unspecified) [ITD-1] | -67.8% | 18.6 µM
29 | O=C(c1ccc(OCCN2CCCCC2)cc1)c1c(-c2ccc(O)cc2)sc2cc(O)ccc12 [Raloxifene hydrochloride] | -94.4% | 20.9 µM
30 | CN(C)c1cc2c(cc1Sc1nc3c(N)nccc3n1CCNCC(C)(C)C)OCO2 [CUDC-305] | -66.5% | 0.468 µM
31 | O=C(CCCCCCNC(=O)c1cnc(N(c2ccccc2)c2ccccc2Cl)nc1)NO [ACY-241] | -86.2% | 5.9 µM
32 | O=C1NC(=O)[C@@H](c2c[nH]c3ccccc23)[C@H]1c1cn2c3c(cccc13)CCC2 [Tivantinib (ARQ 197)] | -62.9% | 0.934 µM
33 | C[C@@H](O)[C@@H](C)Oc1nc(Nc2ccc([S+](=N)([O-])C3CC3)cc2)ncc1C(F)(F)F (stereo partly specified) [Roniciclib] | -94% | 18.6 µM
34 | COc1cc(C(=O)NC2CCN(C)CC2)ccc1Nc1ncc2c(n1)N(C1CCCC1)CCC(=O)N2C(C)C | -107% | 14.8 µM
35 | COc1cc(F)c(F)c(Nc2ccc(I)cc2F)c1N[S+](=O)([O-])C1(C[C@H](O)CO)CC1 [Refametinib] | -84.3% | 2.63 µM
36 | Cc1n[nH]c2ccc(-c3cncc(OC[C@@H](N)Cc4c[nH]c5ccccc45)c3)cc12 | -80.2% | 0.417 µM
37 | O=C(Nc1ncc(-c2cc(C(F)F)nn2-c2c(Cl)cccc2Cl)s1)C1CC1 [BMS-3] | -68% | 0.833 µM
38 | Cc1ccc(N[S+](=O)([O-])c2cccc(C#N)c2)c2[nH]cc(C#N)c12 [E-7820] | -53.2% | 0.417 µM
39 | COc1cc2ncnc(Nc3ccc(O)c(Br)c3)c2cc1OC [WHI-P154] | -72.5% | 14.8 µM
40 | CN1CCN(CC1)C2=CC3=C([NH]C(=N3)C/4=C(\N)C5=C(F)C=CC=C5NC4=O)C=C2 [Dovitinib] | -106% | 8.33 µM

Row | SMILES | efficacy [1] | AC50 cell viability [2]
41 | Nc1nccc(-c2c(-c3ccc(F)cc3)ncn2C2CCN(Cc3ccon3)CC2)n1 | -56.5% | 13.2 µM
42 | COC1=CC=CC(=C1N)\C2=C\C(=O)C3=C(O2)C=CC=C3 | -52.9% | 16.6 µM
43 | O=[N+]([O-])c1ccc(Nc2ccccc2-c2ccccc2)c2nonc12 | -90.7% | 16.6 µM
44 | COc1ccc2cc3[n+](cc2c1OC)CCc1cc2c(cc1-3)OCO2 [Berberine] | -96.9% | 14.8 µM
45 | Cc1cc2cc(Oc3ccnc(Nc4cccc(C[S+](=O)([O-])NCCN(C)C)c4)n3)ccc2[nH]1 [Sulfatinib] | -101% | 11.8 µM
46 | CCOc1cc2ncc(C#N)c(Nc3ccc(F)c(Cl)c3)c2cc1NC(=O)/C=C/CN(C)C [Pelitinib] | -97.7% | 5.9 µM
47 | COc1cc(N2CCC(O)CC2)ccc1Nc1cc(Nc2ccccc2[S+](=O)([O-])C(C)C)c2cc[nH]c2n1 [MPS1-IN-1] | -73% | 3.72 µM
48 | CCCC(CCC)C(=O)NC/1=N/C(=O)N(/C=C1)[C@@H]2O[C@H](CO)[C@@H](O)C2(F)F | -48.1% | 2.63 µM
49 | COC(=O)Nc1nc2cc(C(=O)c3ccc(F)cc3)ccc2[nH]1 [Flubendazole] | -54.4% | 0.468 µM
50 | FC(F)(F)c1ccc(Nc2nc(-c3c(C(F)(F)F)nc4ccccn34)cs2)cc1 [PTC-691] | -73.4% | 0.332 µM
51 | NC(=O)Nc1sc(-c2ccc(F)cc2)cc1C(N)=O [TPCA-1] | -74.4% | 14.8 µM
52 | CCOc1cc2c(c(F)c1OCC)C(=N)N(CC(=O)c1cc(N3CCOCC3)c(OC)c(C(C)(C)C)c1)C2 [E5555] | -77% | 7.42 µM
53 | Cc1ncc(-c2ccnc(Nc3ccc([S+](C)(=O)[O-])cc3)n2)n1C(C)C [AZD-5438] | -62.2% | 0.525 µM
54 | COc1cccc2c1C(=O)c1c(O)c3c(c(O)c1C2=O)C[C@@](O)(C(=O)CO)C[C@@H]3O[C@H]1C[C@H](N)[C@@H](O)[C@H](C)O1 [Epirubicin hydrochloride] | -77.8% | 0.372 µM
55 | Cc1n[nH]c2ccc(-c3cncc(OC[C@@H](N)Cc4ccccc4)c3)cc12 | -69.5% | 0.59 µM
56 | CC(=O)N1c2ccc(-c3ccc(C(=O)O)cc3)cc2[C@H](Nc2ccc(Cl)cc2)C[C@@H]1C | -90.5% | 0.833 µM
57 | CON(C)C(=O)N1/N=C(S[C@@]1(CCCN)C2=CC=CC=C2)/C3=CC(=CC=C3F)F [Filanesib] | -42.1% | 20.9 µM
58 | COC1=CC2=C(C=C1OC)[C@H]3[C@@H](CO2)OC4=C(C=CC5=C4\C=C/C(C)(C)O5)C3=O [Deguelin] | -82.8% | 5.25 µM

— the supplement of paper PMC10290057
